From the NIST ThermoML archive (doi:10.1021/je900598y)
Numbers after ± are expanded uncertainties.

Experiments:
[1] = 298.15 K; 101.33 kPa; Liquid
[2] = excess molar enthalpy (molar enthalpy of mixing); xn = mol fraction of the nth substance listed; settings: 298.15 K, Liquid, Calvet calorimetry

Compound CCCCCC(=O)OC(=O)CCCCC [caproic anhydride] has a mass density [1] of 923.96 ± 0.42 kg/m3.

In the case of CCCCC(=O)OC(=O)CCCC [pentanoic anhydride] + CCCCCCCCCCCC, the excess molar enthalpy ([2]; x1 = 0.0248) is reported as 0.0469 ± 0.000693 kcal/mol, the excess molar enthalpy ([2]; x1 = 0.0484) is reported as 0.0865 ± 0.00117 kcal/mol and the excess molar enthalpy ([2]; x1 = 0.0709) is reported as 0.118 ± 0.00155 kcal/mol. The excess molar enthalpy ([2]; x1 = 0.0923) was 0.146 ± 0.00189 kcal/mol, the excess molar enthalpy ([2]; x1 = 0.1128) was 0.169 ± 0.00217 kcal/mol and the excess molar enthalpy ([2]; x1 = 0.1324) was 0.189 ± 0.00239 kcal/mol. It also gave an excess molar enthalpy ([2]; x1 = 0.1511) of 0.207 ± 0.00263 kcal/mol, an excess molar enthalpy ([2]; x1 = 0.1691) of 0.222 ± 0.00287 kcal/mol and an excess molar enthalpy ([2]; x1 = 0.1914) of 0.239 ± 0.00311 kcal/mol. It also gave an excess molar enthalpy ([2]; x1 = 0.2126) of 0.253 ± 0.00311 kcal/mol, an excess molar enthalpy ([2]; x1 = 0.2327) of 0.265 ± 0.00335 kcal/mol and an excess molar enthalpy ([2]; x1 = 0.2518) of 0.276 ± 0.00359 kcal/mol. The excess molar enthalpy ([2]; x1 = 0.2699) was 0.285 ± 0.00359 kcal/mol, the excess molar enthalpy ([2]; x1 = 0.2827) was 0.292 ± 0.00359 kcal/mol and the excess molar enthalpy ([2]; x1 = 0.3038) was 0.299 ± 0.00382 kcal/mol. For the same compound, the excess molar enthalpy ([2]; x1 = 0.3195) was 0.305 ± 0.00382 kcal/mol, the excess molar enthalpy ([2]; x1 = 0.3411) was 0.315 ± 0.00406 kcal/mol and the excess molar enthalpy ([2]; x1 = 0.3488) was 0.317 ± 0.00406 kcal/mol. For the same compound, the excess molar enthalpy ([2]; x1 = 0.3569) was 0.319 ± 0.00406 kcal/mol, the excess molar enthalpy ([2]; x1 = 0.3654) was 0.321 ± 0.00406 kcal/mol and the excess molar enthalpy ([2]; x1 = 0.3743) was 0.323 ± 0.00406 kcal/mol. For the same compound, the excess molar enthalpy ([2]; x1 = 0.3837) was 0.325 ± 0.00406 kcal/mol, the excess molar enthalpy ([2]; x1 = 0.3935) was 0.327 ± 0.00406 kcal/mol and the excess molar enthalpy ([2]; x1 = 0.4025) was 0.328 ± 0.00406 kcal/mol. The excess molar enthalpy ([2]; x1 = 0.4118) was 0.329 ± 0.00406 kcal/mol, the excess molar enthalpy ([2]; x1 = 0.4217) was 0.33 ± 0.00406 kcal/mol and the excess molar enthalpy ([2]; x1 = 0.432) was 0.331 ± 0.00406 kcal/mol. It also gave an excess molar enthalpy ([2]; x1 = 0.4428) of 0.332 ± 0.00406 kcal/mol, an excess molar enthalpy ([2]; x1 = 0.4542) of 0.333 ± 0.0043 kcal/mol and an excess molar enthalpy ([2]; x1 = 0.4644) of 0.333 ± 0.0043 kcal/mol. The excess molar enthalpy ([2]; x1 = 0.475) was 0.333 ± 0.0043 kcal/mol, the excess molar enthalpy ([2]; x1 = 0.4861) was 0.332 ± 0.00406 kcal/mol and the excess molar enthalpy ([2]; x1 = 0.4978) was 0.332 ± 0.00406 kcal/mol. The excess molar enthalpy ([2]; x1 = 0.51) was 0.331 ± 0.00406 kcal/mol, the excess molar enthalpy ([2]; x1 = 0.5229) was 0.329 ± 0.00406 kcal/mol and the excess molar enthalpy ([2]; x1 = 0.5342) was 0.327 ± 0.00406 kcal/mol. The excess molar enthalpy ([2]; x1 = 0.5461) was 0.326 ± 0.00406 kcal/mol, the excess molar enthalpy ([2]; x1 = 0.5585) was 0.323 ± 0.00406 kcal/mol and the excess molar enthalpy ([2]; x1 = 0.5715) was 0.32 ± 0.00406 kcal/mol. For the same compound, the excess molar enthalpy ([2]; x1 = 0.5851) was 0.317 ± 0.00406 kcal/mol, the excess molar enthalpy ([2]; x1 = 0.5993) was 0.313 ± 0.00406 kcal/mol and the excess molar enthalpy ([2]; x1 = 0.6122) was 0.309 ± 0.00382 kcal/mol. It also gave an excess molar enthalpy ([2]; x1 = 0.6257) of 0.305 ± 0.00382 kcal/mol, an excess molar enthalpy ([2]; x1 = 0.6398) of 0.3 ± 0.00382 kcal/mol and an excess molar enthalpy ([2]; x1 = 0.6545) of 0.294 ± 0.00359 kcal/mol. The excess molar enthalpy ([2]; x1 = 0.6699) was 0.287 ± 0.00359 kcal/mol, the excess molar enthalpy ([2]; x1 = 0.6861) was 0.28 ± 0.00359 kcal/mol and the excess molar enthalpy ([2]; x1 = 0.7003) was 0.272 ± 0.00335 kcal/mol. For the same compound, the excess molar enthalpy ([2]; x1 = 0.7151) was 0.265 ± 0.00335 kcal/mol, the excess molar enthalpy ([2]; x1 = 0.7305) was 0.256 ± 0.00311 kcal/mol and the excess molar enthalpy ([2]; x1 = 0.7467) was 0.246 ± 0.00311 kcal/mol. For the same compound, the excess molar enthalpy ([2]; x1 = 0.7635) was 0.235 ± 0.00311 kcal/mol, the excess molar enthalpy ([2]; x1 = 0.7811) was 0.223 ± 0.00287 kcal/mol and the excess molar enthalpy ([2]; x1 = 0.7967) was 0.211 ± 0.00263 kcal/mol. The excess molar enthalpy ([2]; x1 = 0.8129) was 0.199 ± 0.00263 kcal/mol, the excess molar enthalpy ([2]; x1 = 0.8298) was 0.185 ± 0.00237 kcal/mol and the excess molar enthalpy ([2]; x1 = 0.8474) was 0.17 ± 0.00217 kcal/mol. The excess molar enthalpy ([2]; x1 = 0.8657) was 0.153 ± 0.00198 kcal/mol, the excess molar enthalpy ([2]; x1 = 0.8849) was 0.135 ± 0.00174 kcal/mol and the excess molar enthalpy ([2]; x1 = 0.9022) was 0.117 ± 0.00153 kcal/mol. For the same compound, the excess molar enthalpy ([2]; x1 = 0.9202) was 0.0976 ± 0.00129 kcal/mol, the excess molar enthalpy ([2]; x1 = 0.9389) was 0.0768 ± 0.00105 kcal/mol and the excess molar enthalpy ([2]; x1 = 0.9584) was 0.0528 ± 0.000765 kcal/mol. It also gave an excess molar enthalpy ([2]; x1 = 0.9788) of 0.028 ± 0.000454 kcal/mol.

Compound CCCCCC(=O)OC(=O)CCCCC [caproic anhydride] + CCCCCCCCCCCCCC has an excess molar enthalpy ([2]; x1 = 0.0274) of 0.0479 ± 0.000693 kcal/mol, an excess molar enthalpy ([2]; x1 = 0.0533) of 0.0863 ± 0.00117 kcal/mol and an excess molar enthalpy ([2]; x1 = 0.0779) of 0.118 ± 0.00155 kcal/mol. It also gave an excess molar enthalpy ([2]; x1 = 0.1012) of 0.144 ± 0.00186 kcal/mol, an excess molar enthalpy ([2]; x1 = 0.1234) of 0.166 ± 0.00213 kcal/mol and an excess molar enthalpy ([2]; x1 = 0.1445) of 0.185 ± 0.00237 kcal/mol. It also gave an excess molar enthalpy ([2]; x1 = 0.1681) of 0.203 ± 0.00263 kcal/mol, an excess molar enthalpy ([2]; x1 = 0.1904) of 0.219 ± 0.00287 kcal/mol and an excess molar enthalpy ([2]; x1 = 0.2115) of 0.232 ± 0.00287 kcal/mol. It also gave an excess molar enthalpy ([2]; x1 = 0.2316) of 0.247 ± 0.00311 kcal/mol, an excess molar enthalpy ([2]; x1 = 0.2372) of 0.25 ± 0.00311 kcal/mol and an excess molar enthalpy ([2]; x1 = 0.2431) of 0.253 ± 0.00311 kcal/mol. The excess molar enthalpy ([2]; x1 = 0.2493) was 0.256 ± 0.00311 kcal/mol, the excess molar enthalpy ([2]; x1 = 0.2559) was 0.259 ± 0.00335 kcal/mol and the excess molar enthalpy ([2]; x1 = 0.2628) was 0.263 ± 0.00335 kcal/mol. It also gave an excess molar enthalpy ([2]; x1 = 0.2691) of 0.266 ± 0.00335 kcal/mol, an excess molar enthalpy ([2]; x1 = 0.2757) of 0.269 ± 0.00335 kcal/mol and an excess molar enthalpy ([2]; x1 = 0.2826) of 0.272 ± 0.00335 kcal/mol. The excess molar enthalpy ([2]; x1 = 0.2899) was 0.275 ± 0.00359 kcal/mol, the excess molar enthalpy ([2]; x1 = 0.2975) was 0.278 ± 0.00359 kcal/mol and the excess molar enthalpy ([2]; x1 = 0.3056) was 0.281 ± 0.00359 kcal/mol. For the same compound, the excess molar enthalpy ([2]; x1 = 0.3129) was 0.284 ± 0.00359 kcal/mol, the excess molar enthalpy ([2]; x1 = 0.3204) was 0.286 ± 0.00359 kcal/mol and the excess molar enthalpy ([2]; x1 = 0.3284) was 0.289 ± 0.00359 kcal/mol. The excess molar enthalpy ([2]; x1 = 0.3368) was 0.291 ± 0.00359 kcal/mol, the excess molar enthalpy ([2]; x1 = 0.3456) was 0.294 ± 0.00359 kcal/mol and the excess molar enthalpy ([2]; x1 = 0.3548) was 0.296 ± 0.00382 kcal/mol. The excess molar enthalpy ([2]; x1 = 0.363) was 0.298 ± 0.00382 kcal/mol, the excess molar enthalpy ([2]; x1 = 0.3715) was 0.3 ± 0.00382 kcal/mol and the excess molar enthalpy ([2]; x1 = 0.3805) was 0.301 ± 0.00382 kcal/mol. The excess molar enthalpy ([2]; x1 = 0.3899) was 0.303 ± 0.00382 kcal/mol, the excess molar enthalpy ([2]; x1 = 0.3998) was 0.305 ± 0.00382 kcal/mol and the excess molar enthalpy ([2]; x1 = 0.4012) was 0.306 ± 0.00382 kcal/mol. It also gave an excess molar enthalpy ([2]; x1 = 0.4103) of 0.307 ± 0.00382 kcal/mol, an excess molar enthalpy ([2]; x1 = 0.4199) of 0.308 ± 0.00382 kcal/mol and an excess molar enthalpy ([2]; x1 = 0.4299) of 0.309 ± 0.00382 kcal/mol. For the same compound, the excess molar enthalpy ([2]; x1 = 0.4404) was 0.31 ± 0.00382 kcal/mol, the excess molar enthalpy ([2]; x1 = 0.4514) was 0.31 ± 0.00382 kcal/mol and the excess molar enthalpy ([2]; x1 = 0.463) was 0.31 ± 0.00382 kcal/mol. For the same compound, the excess molar enthalpy ([2]; x1 = 0.4734) was 0.31 ± 0.00382 kcal/mol, the excess molar enthalpy ([2]; x1 = 0.4843) was 0.31 ± 0.00382 kcal/mol and the excess molar enthalpy ([2]; x1 = 0.4958) was 0.309 ± 0.00382 kcal/mol. For the same compound, the excess molar enthalpy ([2]; x1 = 0.5077) was 0.308 ± 0.00382 kcal/mol, the excess molar enthalpy ([2]; x1 = 0.5203) was 0.307 ± 0.00382 kcal/mol and the excess molar enthalpy ([2]; x1 = 0.5335) was 0.305 ± 0.00382 kcal/mol. The excess molar enthalpy ([2]; x1 = 0.5453) was 0.303 ± 0.00382 kcal/mol, the excess molar enthalpy ([2]; x1 = 0.5575) was 0.3 ± 0.00382 kcal/mol and the excess molar enthalpy ([2]; x1 = 0.5703) was 0.297 ± 0.00382 kcal/mol. It also gave an excess molar enthalpy ([2]; x1 = 0.5838) of 0.294 ± 0.00359 kcal/mol, an excess molar enthalpy ([2]; x1 = 0.5979) of 0.29 ± 0.00359 kcal/mol and an excess molar enthalpy ([2]; x1 = 0.6126) of 0.286 ± 0.00359 kcal/mol. For the same compound, the excess molar enthalpy ([2]; x1 = 0.6261) was 0.281 ± 0.00359 kcal/mol, the excess molar enthalpy ([2]; x1 = 0.6401) was 0.277 ± 0.00359 kcal/mol and the excess molar enthalpy ([2]; x1 = 0.6548) was 0.271 ± 0.00335 kcal/mol. The excess molar enthalpy ([2]; x1 = 0.6702) was 0.265 ± 0.00335 kcal/mol, the excess molar enthalpy ([2]; x1 = 0.6863) was 0.258 ± 0.00335 kcal/mol and the excess molar enthalpy ([2]; x1 = 0.7032) was 0.249 ± 0.00311 kcal/mol. It also gave an excess molar enthalpy ([2]; x1 = 0.7185) of 0.242 ± 0.00311 kcal/mol, an excess molar enthalpy ([2]; x1 = 0.7345) of 0.232 ± 0.00287 kcal/mol and an excess molar enthalpy ([2]; x1 = 0.7512) of 0.223 ± 0.00287 kcal/mol. For the same compound, the excess molar enthalpy ([2]; x1 = 0.7686) was 0.212 ± 0.00263 kcal/mol, the excess molar enthalpy ([2]; x1 = 0.7869) was 0.2 ± 0.00263 kcal/mol and the excess molar enthalpy ([2]; x1 = 0.8038) was 0.188 ± 0.00239 kcal/mol. It also gave an excess molar enthalpy ([2]; x1 = 0.8214) of 0.175 ± 0.00225 kcal/mol, an excess molar enthalpy ([2]; x1 = 0.8397) of 0.16 ± 0.00206 kcal/mol and an excess molar enthalpy ([2]; x1 = 0.8589) of 0.145 ± 0.00189 kcal/mol. The excess molar enthalpy ([2]; x1 = 0.879) was 0.127 ± 0.00165 kcal/mol, the excess molar enthalpy ([2]; x1 = 0.9001) was 0.108 ± 0.00143 kcal/mol and the excess molar enthalpy ([2]; x1 = 0.9185) was 0.0894 ± 0.0012 kcal/mol. The excess molar enthalpy ([2]; x1 = 0.9376) was 0.07 ± 0.000956 kcal/mol, the excess molar enthalpy ([2]; x1 = 0.9575) was 0.0488 ± 0.000717 kcal/mol and the excess molar enthalpy ([2]; x1 = 0.9783) was 0.0255 ± 0.00043 kcal/mol.
